Results as given in US20100120013A1, “PROCEDURE FOR LONG TERM CORNEAL CULTURE” (MB RESEARCH LABORATORIES, INC., priority 2008, published 2010).

Tested on: excised cultured porcine corneas
Settings: pig, 5 min, 100 %
Method: The toxicological ocular irritation and recovery testing procedure is conducted on excised corneas (53), FIG. 7, according to the following steps. • a) The toxicological ocular irritation and recovery testing procedure begins approximately 24 hours after the corneas are excised. This allows the corneas to be placed in a custom culture media (55) to equilibrate to the culture conditions for 24 hours (57). […] Unsuccessfully treated corneas are discarded (73). • j) The toxicity of the test material is determined by measuring cell vitality, death, or impairment in the cultured corneal tissue via confocal microscopy paired with various vital dyes, whether colored or fluorescent. […]
Also further included is a method for measuring cell death or impairment with NaFL in the cultured corneal tissue according to the following steps. • i) On days “1”, “2”, “3”, “7”, “10”, “14”, and “21” of the toxicological ocular irritation and recovery testing procedure, the percentage of damaged corneal tissue area is determined by staining with 2% sodium fluorescein (NaFL) stain as in the Draize rabbit eye test. • ii) The culture media is examined microscopically throughout the toxicological ocular irritation and recovery testing procedure for presence of contamination.

## CCO [ethanol]
  time in culture at which dosed corneas no longer retain NaFL stain (recovery): 3 to 10 days
